Molecular target: NAMPT (Homo sapiens, UniProt P43490)
Test: Time-Resolved Fluorescence Resonance Energy Transfer (TR-FRET) Binding Assay of NAMPT
Settings: 6.8 nM NAMPT, 200 nM probe, equilibrated 3 hours, no substrates
Procedure: Determination of the utility of compounds having Formula (I) as binders to and inhibitors of NAMPT was performed using Time-Resolved Fluorescence Resonance Energy Transfer (TR-FRET) binding assays.
Time-Resolved Fluorescence Resonance Energy Transfer (TR-FRET) Binding Assay of NAMPT
Six L were transferred to 384-well low-volume plates ([…] #3673). To this, 12 L of a 1.5× solution containing enzyme, probe and antibody were added. […] Reactions were equilibrated at room temperature for 3 hours prior to reading on an Envision multi-label plate reader (Perkin Elmer; Ex=337 nm, Em=520 and 495 nm). Time-resolved FRET ratios (Em520/Em495) were normalized to controls, plotted as a function of compound concentration and fit with the four-parameter logistic equation to determine IC50s.

NAMPT, sequence (P43490 whole entry): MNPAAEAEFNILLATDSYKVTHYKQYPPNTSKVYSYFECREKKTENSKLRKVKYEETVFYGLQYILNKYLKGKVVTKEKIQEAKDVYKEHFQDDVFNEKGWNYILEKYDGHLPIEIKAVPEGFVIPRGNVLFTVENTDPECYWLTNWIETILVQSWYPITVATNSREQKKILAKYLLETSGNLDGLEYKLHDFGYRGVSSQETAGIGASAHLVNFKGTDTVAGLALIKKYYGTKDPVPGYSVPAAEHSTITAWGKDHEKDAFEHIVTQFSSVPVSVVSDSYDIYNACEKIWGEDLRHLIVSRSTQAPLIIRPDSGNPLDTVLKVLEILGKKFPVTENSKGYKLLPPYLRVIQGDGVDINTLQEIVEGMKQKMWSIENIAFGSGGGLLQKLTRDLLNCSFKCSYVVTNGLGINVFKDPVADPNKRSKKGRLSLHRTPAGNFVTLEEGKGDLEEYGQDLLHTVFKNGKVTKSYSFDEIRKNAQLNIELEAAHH

Row | Compound | IC50
1 | O=C(Nc1ccc(C2CN(CC3CCOC3)C2)cc1)N1CC(c2cccnc2)C1 (stereo not drawn) [Example 256, 3-(pyridin-3-yl)-N-{4-[1-(tetrahydrofuran-3-ylmethyl)azetidin-3-yl]phenyl}azetidine-1-carboxamide] | 830 nM

System: PC3 cells
Test: NAMPT Cell Proliferation Assay (Cell Titer Glo)
Assay type: cell-based
Settings: Homo sapiens, PC-3, 120 h, incubated 5 days, cell viability
Procedure: NAMPT Cell Proliferation Assay
PC3 cells were seeded in 96-well black plates (Corning #3904) at 500 cells/well in 90 µl of RPMI media containing 10% heat-inactivated FBS and incubated overnight at 37° C. and 5% CO2 to allow cells to attach to wells. The following day, test compounds were serially diluted in neat DMSO to 1000× final concentrations prior to dilution with RPMI media to 10× and 1% DMSO. Ten L of the 10× compounds were then transferred to wells containing cells to produce a dose response of 10-fold dilutions from […]. Cells were incubated for 5 days at 37° C. and 5% CO2, then cell viability was measured using Cell Titer Glo reagent (Promega #G7571). Percent inhibition values were calculated and fitted to a sigmoidal dose response curves using Assay Explorer software to determine IC50s.

Row | Compound | IC50
2 | CC1(C(=O)N2CCC(Cc3ccc(NC(=O)N4CC(c5cccnn5)C4)cc3)CC2)CC1 [Example 357, N-[4-({1-[(1-methylcyclopropyl)carbonyl]piperidin-4-yl}methyl)phenyl]-3-(pyridazin-3-yl)azetidine-1-carboxamide] | 703 nM
3 | O=C(Nc1ccc(C2CCN(C(=O)C3CC3)CC2)cc1)N1CC(c2cccnn2)C1 [Example 340, N-{4-[1-(cyclopropylcarbonyl)piperidin-4-yl]phenyl}-3-(pyridazin-3-yl)azetidine-1-carboxamide] | 2450 nM
4 | O=C(Nc1ccc(CC2CCN(C(=O)c3ccccc3)CC2)cc1)N1CC(c2cccnn2)C1 [Example 348, N-{4-[(1-benzoylpiperidin-4-yl)methyl]phenyl}-3-(pyridazin-3-yl)azetidine-1-carboxamide] | 803 nM
5 | CC(=O)N1CCC(Cc2ccc(NC(=O)N3CC(c4cccnn4)C3)cc2)CC1 [Example 355, N-{4-[(1-acetylpiperidin-4-yl)methyl]phenyl}-3-(pyridazin-3-yl)azetidine-1-carboxamide] | 7310 nM
6 | O=C(CC1CC1)N1CCC(c2ccc(NC(=O)N3CC(c4cccnn4)C3)cc2)CC1 [Example 347, N-{4-[1-(cyclopropylacetyl)piperidin-4-yl]phenyl}-3-(pyridazin-3-yl)azetidine-1-carboxamide] | 1550 nM
7 | O=C(Nc1ccc(C2CCN(C(=O)C3CCC3)CC2)cc1)N1CC(c2cccnn2)C1 [Example 343, N-{4-[1-(cyclobutylcarbonyl)piperidin-4-yl]phenyl}-3-(pyridazin-3-yl)azetidine-1-carboxamide] | 831 nM
8 | O=C(Nc1ccc(C2CCN(C(=O)C3CCOC3)CC2)cc1)N1CC(c2cccnc2)C1 (stereo not drawn) [Example 53, 3-(pyridin-3-yl)-N-{4-[1-(tetrahydrofuran-3-ylcarbonyl)piperidin-4-yl]phenyl}azetidine-1-carboxamide] | 13.8 nM
9 | O=C(Nc1ccc(C2CCN(C(=O)c3ccccc3F)CC2)cc1)N1CC(c2cccnn2)C1 [Example 337, N-{4-[1-(2-fluorobenzoyl)piperidin-4-yl]phenyl}-3-(pyridazin-3-yl)azetidine-1-carboxamide] | 55.5 nM
10 | CC(C)C(=O)N1CCC(Cc2ccc(NC(=O)N3CC(c4cccnn4)C3)cc2)CC1 [Example 354, N-(4-{[1-(2-methylpropanoyl)piperidin-4-yl]methyl}phenyl)-3-(pyridazin-3-yl)azetidine-1-carboxamide] | 994 nM
11 | O=C(Nc1ccc(C2CCN(C(=O)[C@H]3CCOC3)CC2)cc1)N1CC(c2cnccc2Cl)C1 [Example 160, 3-(4-chloropyridin-3-yl)-N-(4-{1-[(3S)-tetrahydrofuran-3-ylcarbonyl]piperidin-4-yl}phenyl)azetidine-1-carboxamide] | 639 nM
12 | O=C(Nc1ccc(CC2CCN(C(=O)c3ccccc3F)CC2)cc1)N1CC(c2cccnn2)C1 [Example 349, N-(4-{[1-(2-fluorobenzoyl)piperidin-4-yl]methyl}phenyl)-3-(pyridazin-3-yl)azetidine-1-carboxamide] | 772 nM
13 | CC1(C(=O)N2CCC(c3ccc(NC(=O)N4CC(c5cccnn5)C4)cc3)CC2)CC1 [Example 346, N-(4-{1-[(1-methylcyclopropyl)carbonyl]piperidin-4-yl}phenyl)-3-(pyridazin-3-yl)azetidine-1-carboxamide] | 843 nM
14 | CC(C)(C)CC(=O)N1CCC(c2ccc(NC(=O)N3CC(c4cccnn4)C3)cc2)CC1 [Example 342, N-{4-[1-(3,3-dimethylbutanoyl)piperidin-4-yl]phenyl}-3-(pyridazin-3-yl)azetidine-1-carboxamide] | 390 nM
15 | Cc1ccccc1C(=O)N1CCC(c2ccc(NC(=O)N3CC(c4cccnn4)C3)cc2)CC1 [Example 338, N-{4-[1-(2-methylbenzoyl)piperidin-4-yl]phenyl}-3-(pyridazin-3-yl)azetidine-1-carboxamide] | 587 nM
